Columns and labels:
[1] = Activation of rat SK2 variant a transfected in human tsA201 cells coexpressing CaM/GFP in presence of Ca2+ by […]; format: cell-based
[2] = Oral bioavailability in fasted Sprague-Dawley rat at 100 mg/kg measured upto 12 hrs by LC-MS/MS analysis; format: ADME, organism-based; settings: in vivo
[3] = AUC (0 to t) in fasted Sprague-Dawley rat at 100 mg/kg, po measured upto 12 hrs by LC-MS/MS analysis; format: ADME, organism-based; set-up: time < 12 hrs, dose 100 mg/kg, route po; settings: in vivo
[4] = Apparent volume of distribution during terminal phase in fasted Sprague-Dawley rat at 100 mg/kg, po measured upto 12 hrs by LC-MS/MS analysis; format: ADME, organism-based; settings: in vivo, read-out: Vz/F
[5] = Apparent oral clearance in fasted Sprague-Dawley rat at 100 mg/kg, po measured upto 12 hrs by LC-MS/MS analysis; format: ADME, organism-based; settings: in vivo
[6] = MRT in fasted Sprague-Dawley rat at 2 mg/kg, iv measured upto 12 hrs by LC-MS/MS analysis; format: ADME, organism-based; settings: in vivo
[7] = Apparent permeability across apical to basal side in human BMEC cells at 10 ug/ml incubated for 24 hrs by BBB assay; format: ADME, cell-based; settings: dose 10 µg/ml
[8] = MRT in fasted Sprague-Dawley rat at 100 mg/kg, po measured upto 12 hrs by LC-MS/MS analysis; format: ADME, organism-based; settings: in vivo
[9] = Apparent oral clearance in fasted Sprague-Dawley rat at 2 mg/kg, iv measured upto 12 hrs by LC-MS/MS analysis; format: ADME, organism-based; settings: in vivo
[10] = Half life in fasted Sprague-Dawley rat at 100 mg/kg, po measured upto 12 hrs by LC-MS/MS analysis; format: ADME, organism-based; settings: in vivo
HUVEC = assay: Cytotoxicity against HUVEC cells assessed as cell viability at 0.1 to 10000 nM incubated for 24 hrs by CCK8 assay; format: toxicity, cell-based; settings: human, 10 µM, dose 0.1-10000 nM
[11] = AUC (0 to t) in fasted Sprague-Dawley rat at 2 mg/kg, iv measured upto 12 hrs by LC-MS/MS analysis; format: ADME, organism-based; set-up: dose 2 mg/kg, time < 12 hrs, route iv; settings: in vivo
[12] = Tmax in fasted Sprague-Dawley rat at 100 mg/kg, po measured upto 12 hrs by LC-MS/MS analysis; format: ADME, organism-based; settings: in vivo
[13] = AUC (0 to infinity) in fasted Sprague-Dawley rat at 100 mg/kg, po measured upto 12 hrs by LC-MS/MS analysis; format: ADME, organism-based; set-up: time < 12 hrs, dose 100 mg/kg, route po; settings: in vivo
[14] = Half life in fasted Sprague-Dawley rat at 2 mg/kg, iv measured upto 12 hrs by LC-MS/MS analysis; format: ADME, organism-based; settings: in vivo
[15] = Cmax in fasted Sprague-Dawley rat at 100 mg/kg, po measured upto 12 hrs by LC-MS/MS analysis; format: ADME, organism-based; set-up: time < 12 hrs, dose 100 mg/kg, route po; settings: in vivo
[16] = AUC (0 to infinity) in fasted Sprague-Dawley rat at 2 mg/kg, iv measured upto 12 hrs by LC-MS/MS analysis; format: ADME, organism-based; set-up: time < 12 hrs, dose 2 mg/kg, route iv; settings: in vivo
[17] = Cmax in fasted Sprague-Dawley rat at 2 mg/kg, iv measured upto 12 hrs by LC-MS/MS analysis; format: ADME, organism-based; set-up: dose 2 mg/kg, time < 12 hrs, route iv; settings: in vivo
[18] = Apparent volume of distribution during terminal phase in fasted Sprague-Dawley rat at 2 mg/kg, iv measured upto 12 hrs by LC-MS/MS analysis; format: ADME, organism-based; settings: in vivo
[19] = target: T1, Small conductance calcium-activated potassium channel protein 2 (Homo sapiens, UniProt Q9H2S1); assay: Positive modulation of SK2 in HEK293 cells in presence of Ca2+ by patch-clamp method; format: cell-based
T1 sequence (Q9H2S1 whole entry): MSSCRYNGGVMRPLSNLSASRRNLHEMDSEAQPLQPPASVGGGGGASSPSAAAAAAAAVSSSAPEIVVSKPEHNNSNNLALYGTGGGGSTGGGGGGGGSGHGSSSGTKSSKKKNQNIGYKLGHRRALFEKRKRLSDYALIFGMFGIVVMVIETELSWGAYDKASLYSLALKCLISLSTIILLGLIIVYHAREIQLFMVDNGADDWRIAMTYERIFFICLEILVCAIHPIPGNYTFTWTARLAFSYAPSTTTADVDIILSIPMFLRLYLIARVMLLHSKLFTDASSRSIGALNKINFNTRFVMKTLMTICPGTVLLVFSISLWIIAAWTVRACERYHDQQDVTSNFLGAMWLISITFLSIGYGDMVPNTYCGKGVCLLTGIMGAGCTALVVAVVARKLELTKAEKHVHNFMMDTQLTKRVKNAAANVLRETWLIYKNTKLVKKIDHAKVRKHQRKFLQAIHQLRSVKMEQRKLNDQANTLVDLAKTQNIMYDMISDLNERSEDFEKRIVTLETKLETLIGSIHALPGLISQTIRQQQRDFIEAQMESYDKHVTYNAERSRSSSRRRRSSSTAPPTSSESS

[20] = target: T2, Small conductance calcium-activated potassium channel protein 1 (Homo sapiens, UniProt Q92952); assay: Positive modulation of SK1 in HEK293 cells in presence of Ca2+ by patch-clamp method; format: cell-based
T2 sequence (Q92952 whole entry): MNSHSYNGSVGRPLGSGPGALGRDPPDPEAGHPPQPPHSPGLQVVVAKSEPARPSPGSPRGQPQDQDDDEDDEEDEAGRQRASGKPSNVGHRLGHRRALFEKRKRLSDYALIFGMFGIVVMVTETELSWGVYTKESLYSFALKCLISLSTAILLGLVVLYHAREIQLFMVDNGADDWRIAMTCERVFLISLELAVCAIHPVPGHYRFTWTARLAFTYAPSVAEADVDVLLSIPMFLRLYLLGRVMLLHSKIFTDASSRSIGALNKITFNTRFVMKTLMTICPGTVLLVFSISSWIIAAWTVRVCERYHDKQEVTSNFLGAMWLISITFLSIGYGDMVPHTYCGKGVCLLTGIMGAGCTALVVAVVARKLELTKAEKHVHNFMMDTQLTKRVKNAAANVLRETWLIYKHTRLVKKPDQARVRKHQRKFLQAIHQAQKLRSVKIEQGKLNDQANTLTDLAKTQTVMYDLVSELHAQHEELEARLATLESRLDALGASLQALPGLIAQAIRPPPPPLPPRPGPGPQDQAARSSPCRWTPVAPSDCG

[21] = target: T2, Small conductance calcium-activated potassium channel protein 1; assay: Positive modulation of SK1 (unknown origin)
[22] = target: T1, Small conductance calcium-activated potassium channel protein 2; assay: Positive modulation of SK2 (unknown origin)
[23] = target: Small conductance calcium-activated potassium channel protein 3 (Homo sapiens, UniProt Q9UGI6); assay: Positive modulation of SK3 (unknown origin)
Small conductance calcium-activated potassium channel protein 3, sequence (Q9UGI6 whole entry): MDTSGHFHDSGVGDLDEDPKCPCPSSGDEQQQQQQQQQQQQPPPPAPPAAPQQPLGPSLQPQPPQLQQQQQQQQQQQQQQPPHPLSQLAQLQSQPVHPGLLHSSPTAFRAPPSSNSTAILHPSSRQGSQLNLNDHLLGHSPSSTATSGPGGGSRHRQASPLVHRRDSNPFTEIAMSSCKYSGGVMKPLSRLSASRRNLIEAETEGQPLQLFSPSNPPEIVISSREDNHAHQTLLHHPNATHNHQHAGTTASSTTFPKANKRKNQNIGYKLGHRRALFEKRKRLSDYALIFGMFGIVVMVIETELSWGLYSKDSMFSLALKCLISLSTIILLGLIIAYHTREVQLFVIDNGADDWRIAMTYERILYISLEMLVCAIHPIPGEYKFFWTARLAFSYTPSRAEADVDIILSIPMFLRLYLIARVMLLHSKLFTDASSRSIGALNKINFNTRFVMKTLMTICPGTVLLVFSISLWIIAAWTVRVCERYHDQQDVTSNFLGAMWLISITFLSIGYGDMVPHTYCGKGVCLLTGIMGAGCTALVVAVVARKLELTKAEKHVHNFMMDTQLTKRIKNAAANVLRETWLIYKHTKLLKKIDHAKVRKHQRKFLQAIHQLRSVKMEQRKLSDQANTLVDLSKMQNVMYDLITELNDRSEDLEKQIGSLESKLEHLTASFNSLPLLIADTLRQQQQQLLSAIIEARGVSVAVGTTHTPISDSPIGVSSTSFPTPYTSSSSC

Cc1ccn(-c2nc(Nc3cccc(C(F)(F)F)c3)c3ccn(C)c3n2)n1
EC50 [1]: 6.52 µM

CCc1ccc(Nc2nc(-n3nc(C)cc3C)nc3ccn(C)c23)cc1
EC50 [1]: 3.65 µM

Cc1cccc(Nc2nc(-n3nc(C)cc3C)nc3c2ccn3C)c1
EC50 [1]: 6.54 µM

Cc1ccc(Nc2nc(-n3nc(C)cc3C)nc3c2ccn3C)cc1
EC50 [1]: 3.1 µM

Cc1cc(C)n(-c2nc(NC3CCCCC3)c3ccn(C)c3n2)n1
EC50 [1]: 2.28 µM

COc1ccc(Nc2nc(-n3nc(C)cc3C)nc3sccc23)cc1
EC50 [1]: > 100 µM

Cc1cc(C)n(-c2nc(Nc3cccc(Br)c3)c3ccn(C)c3n2)n1
bioavailability ([2]; Sprague-Dawley): 4.03%
AUC(0-t) at 12 h ([3]; Sprague-Dawley): 2500 ng·h/mL
Vd/F [4]: 92.9 L/kg
CL/F ([5]; Sprague-Dawley, read-out: CLz/F (converted)): 813 mL/min/kg
MRT [6]: 1.5 h
Papp A→B at 24 h, 10 ug/ml [7]: 3.23 ×10⁻⁶ cm/s
MRT [8]: 3.22 h
CLz/F [9]: 26.8 mL/min/kg
half-life [10]: 1.25 h
Activity (HUVEC): Non-Toxic
AUC(0-t) at 12 h [11]: 1360 ng·h/mL
Tmax [12]: 2.67 h
AUC(0-inf) [13]: 2510 ng·h/mL
half-life [14]: 1.97 h
Cmax [15]: 662 ng/mL
AUC(0-inf) ([16]; Sprague-Dawley): 1370 ng·h/mL
EC50 [1]: 0.73 µM
Cmax [17]: 1620 ng/mL
Vz/F [18]: 4.791 L/kg

Cc1cc(C)n(-c2nc(Nc3ccccc3)c3ccn(C)c3n2)n1
EC50 [1]: 4.31 µM

Cc1cc(C)n(-c2nc(Nc3cccc(Br)c3)c3c(ccn3C)n2)n1
EC50 [1]: 1.73 µM

Cc1cccc(Nc2nc(-n3nc(C)cc3C)nc3ccn(C)c23)c1
EC50 [1]: 7.71 µM

Cc1cc(C)n(-c2nc(Nc3ccc(F)c(Cl)c3)c3ccn(C)c3n2)n1
EC50 [1]: 1.79 µM

Cc1cc(C)n(-c2nc(Nc3ccc(F)cc3)c3ccsc3n2)n1
EC50 [1]: 6.78 µM

COc1ccc(Nc2nc(-n3nc(C)cc3C)nc3c2ccn3C)cc1
EC50 [1]: 13.7 µM

Cc1cc(C)n(-c2nc(Nc3ccc(Cl)c(C(F)(F)F)c3)c3ccn(C)c3n2)n1
EC50 [1]: 1.2 µM

Cc1ccn(-c2nc(Nc3ccc(F)cc3)c3ccn(C)c3n2)n1
F ([2]; po, 100 mg/kg, 12 h): 23.6%
AUCt ([3]; 12 h): 2427.989 ng·h/mL
Vd/F [4]: 86.7 L/kg
CLz/F ([5]; po, 100 mg/kg, 12 h): 695.27 mL/min/kg
MRT [6]: 1.51 h
Papp A→B at 24 h, 10 ug/ml [7]: 3.07 ×10⁻⁶ cm/s
MRT [8]: 3.37 h
CLz/F [9]: 31.72 mL/min/kg
half-life [10]: 1.43 h
Activity (HUVEC): Non-Toxic
AUC(0-t) at 12 h [11]: 1110 ng·h/mL
Tmax [12]: 2.67 h
half-life [14]: 2.63 h
Cmax [15]: 488 ng/mL
AUC ([16]; 12 h): 1168.28 ng·h/mL
Cmax [17]: 1680 ng/mL
Vz/F [18]: 6.111 L/kg

Cc1cc(C)n(-c2nc(Nc3cccc(C(F)(F)F)c3)c3c(ccn3C)n2)n1
EC50 [1]: 20.4 µM

Cc1cc(C)n(-c2nc(Nc3cccc(C#N)c3)c3ccn(C)c3n2)n1
EC50 [1]: 4.08 µM

CCc1ccc(Nc2nc(-n3nc(C)cc3C)nc3c2ccn3C)cc1
EC50 [1]: > 100 µM

O=C1Nc2c(ccc(Cl)c2Cl)C1=NO
EC50 [19]: 0.8 µM
EC50 [20]: 0.6 µM

Cc1cc(C)n(-c2nc(Nc3ccc(Br)cc3)c3ccsc3n2)n1
EC50 [1]: > 100 µM

Cc1cc(C)n(-c2nc(Nc3ccccc3)c3c(ccn3C)n2)n1
EC50 [1]: 8.43 µM

Cc1cc(C)n(-c2nc(N(C)Cc3ccccc3)c3ccn(C)c3n2)n1
EC50 [1]: 19.1 µM

Cc1cc(C)n(-c2nc(Nc3ccc(C(C)C)cc3)c3ccsc3n2)n1
EC50 [1]: > 100 µM

CCC(CC)Nc1nc(-n2nc(C)cc2C)nc2sccc12
EC50 [1]: > 100 µM

Cc1cc(C)n(-c2nc(Nc3ccc(C(C)C)cc3)c3ccn(C)c3n2)n1
EC50 [1]: 3.81 µM

Cc1cc(C)n(-c2nc(Nc3cccc(C(C)C)c3)c3c(ccn3C)n2)n1
EC50 [1]: 2.97 µM

Cc1cc(NC2CCCCC2)nc(-n2nc(C)cc2C)n1
EC50 [21]: > 100 µM
EC50 [22]: 14 µM
EC50 [23]: 5.6 µM

Cc1cc(C)n(-c2nc(Nc3ccccc3)c3ccsc3n2)n1
EC50 [1]: 8.34 µM

Cc1cc(C)n(-c2nc(Nc3ccc(Cl)c(C(F)(F)F)c3)c3c(ccn3C)n2)n1
EC50 [1]: 29.8 µM

Cc1ccn(-c2nc(Nc3ccc(Cl)c(C(F)(F)F)c3)c3ccn(C)c3n2)n1
EC50 [1]: 0.5 µM

Cc1cc(C)n(-c2nc(NC3CCCCC3)c3ccsc3n2)n1
EC50 [1]: > 100 µM

Cc1cc(C)n(-c2nc(Nc3ccc(Br)cc3)c3ccn(C)c3n2)n1
EC50 [1]: 1.94 µM

Cc1ccn(-c2nc(Nc3cccc(Br)c3)c3ccn(C)c3n2)n1
EC50 [1]: 0.48 µM

Cc1cc(C)n(-c2nc(Nc3cccc(C(F)(F)F)c3)c3ccn(C)c3n2)n1
EC50 [1]: 1.6 µM

Cc1cc(C)n(-c2nc(Nc3ccc(Cl)cc3)c3ccsc3n2)n1
EC50 [1]: > 100 µM

Cc1cc(C)n(-c2nc(Nc3ccc(Cl)cc3)c3ccn(C)c3n2)n1
EC50 [1]: 3.5 µM

CCc1ccc(Nc2nc(-n3nc(C)cc3C)nc3sccc23)cc1
EC50 [1]: > 100 µM

Cc1cc(C)n(-c2nc(Nc3ccc(I)cc3)c3ccsc3n2)n1
EC50 [1]: > 100 µM

Cc1ccc(Nc2nc(-n3nc(C)cc3C)nc3sccc23)cc1
EC50 [1]: > 100 µM

Cc1cc(C)n(-c2nc(Nc3ccc(Cl)cc3)c3ncn(C)c3n2)n1
Papp A→B at 24 h, 10 ug/ml [7]: 2.94 ×10⁻⁶ cm/s
EC50 [19]: 1.8 µM
EC50 [20]: > 100 µM

Cc1cc(C)n(-c2nc(Nc3ccc(F)cc3)c3ccn(C)c3n2)n1
EC50 [1]: 3.41 µM

Cc1cc(C)n(-c2nc(Nc3cccc([N+](=O)[O-])c3)c3ccn(C)c3n2)n1
EC50 [1]: 5.73 µM

Reference: ChEMBL document CHEMBL5325425, “Design, synthesis and biological evaluation of pyrrolopyrimidine derivatives as novel and selective positive modulator of the small conductance Ca2+-activated K+ channels” (Eur J Med Chem, 2023)
